US20090022772A1, “BIOABSORBABLE ELASTOMERIC ARTERIAL SUPPORT DEVICE AND METHODS OF USE” (MediVas, LLC, priority 2007, published 2009)

Test: Properties and self-adherence of PEA 4-Phe-4/EAC-2 mixture films, dry and after soaking in water
Assay type: physicochemical
Set-up: key to Self-adherence: (—) means: no self-adherence observed
Conditions: for Self-adherence: folded film in water 24 hours
Source text: At the first stage, this Example addresses the question of whether invention cross-linking agents can be used as plasticizers without causing the composition to undesirably adhere to the surface of other materials (for example, steel, and other medical device surfaces).

- Self-adherence (PEA 4-Phe-4/EAC-2 40/60 w/w): —
- Film properties, Dry (PEA 4-Phe-4/EAC-2 60/40 w/w): Hard
- Self-adherence (PEA 4-Phe-4/EAC-2 60/40 w/w): —
- Film properties, Wet (PEA 4-Phe-4/EAC-2 60/40 w/w, pre-soaked in water at room temperature for 24 hours): Elastic
- Film properties, Dry (PEA 4-Phe-4/EAC-2 80/20 w/w): Hard
- Self-adherence (PEA 4-Phe-4/EAC-2 80/20 w/w): —
Structure (SMILES): C=C(C)C(=O)NC(Cc1ccccc1)C(=O)OCCCCCCOC(=O)C(Cc1ccccc1)NC(=O)C(=C)C [Phe-6-MA, dimethacrylate of bis(L-Phe)-1,6-hexanediol diester]
